Patent US20250230193A1, “CYCLIC COMPOUND HAVING SELECTIVE KRAS INHIBITORY EFFECT ON HRAS AND NRAS” (CHUGAI SEIYAKU KABUSHIKI KAISHA, priority 2022, published 2025)

Columns and labels:
[1] = biological target: GDP-bound NRAS wild-type protein (Homo sapiens, UniProt P01111); test: Binding to NRAS by surface plasmon resonance (SPR), Single Cycle Kinetics; settings: KD ratio, GDP-bound NRAS wild-type vs GDP-bound KRAS wild-type, SPR
[2] = biological target: GDP-bound HRAS wild-type protein (Homo sapiens, UniProt P01112); test: Binding to HRAS by surface plasmon resonance (SPR), Single Cycle Kinetics; settings: KD ratio, GDP-bound HRAS wild-type vs GDP-bound KRAS wild-type, SPR
Chain of GDP-bound HRAS wild-type protein (P01112 whole entry): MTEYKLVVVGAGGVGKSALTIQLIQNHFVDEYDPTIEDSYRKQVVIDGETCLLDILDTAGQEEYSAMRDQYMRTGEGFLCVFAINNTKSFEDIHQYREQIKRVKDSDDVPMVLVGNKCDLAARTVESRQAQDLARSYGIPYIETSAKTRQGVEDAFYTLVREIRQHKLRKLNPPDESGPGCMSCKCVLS

Chain of GDP-bound NRAS wild-type protein (P01111 whole entry): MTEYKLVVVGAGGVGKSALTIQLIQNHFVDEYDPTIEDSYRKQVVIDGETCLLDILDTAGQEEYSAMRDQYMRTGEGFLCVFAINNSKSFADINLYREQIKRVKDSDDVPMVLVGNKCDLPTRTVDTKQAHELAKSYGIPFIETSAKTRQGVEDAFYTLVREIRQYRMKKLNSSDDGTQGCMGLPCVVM

| Compound | NRAS/KRAS (ratio of KD value for NRAS to KD value for KRAS) [1] | HRAS/KRAS (ratio of KD value for HRAS to KD value for KRAS) [2] |
| --- | --- | --- |
| CCO[C@@H]1C[C@H]2C(=O)NC3(CC(C)(C)C3)C(=O)N(C)[C@@H](C3CCCC3)C(=O)N(C)[C@H](C(=O)N(C)C)CC(=O)N(C)[C@@H](C3CCC3)C(=O)N[C@@H]([C@@H](C)CC)C(=O)N(C)CC(=O)N(C)[C@H]3C/C=C\CCN(C3=O)[C@@H](Cc3ccc(C(F)(F)F)cc3)C(=O)N(C)CC(=O)N[C@@H](CCc3ccc(C(F)(F)F)c(OC)c3)C(=O)N2C1 [PP1987] | A (a compound having 10 or more and less than 20 is denoted as A) | A (a compound having 10 or more and less than 20 is denoted as A) |
| CCCN(C)C(=O)[C@@H]1CC(=O)N(C)[C@@H](COCC)C(=O)N[C@@H]([C@@H](C)CC)C(=O)N(C)CC(=O)N(C)[C@H]2C/C=C\CCN(C2=O)[C@@H](Cc2ccc(C(F)(F)F)cc2)C(=O)N(C)CC(=O)N[C@@H](CCc2cc(F)c(C(F)(F)F)c(F)c2)C(=O)N2C[C@H](OCC)C[C@H]2C(=O)NC2(CCC2)C(=O)N(C)[C@@H](C2CCCC2)C(=O)N1C [PP1988] | A (a compound having 10 or more and less than 20 is denoted as A) | A (a compound having 10 or more and less than 20 is denoted as A) |
| CCCN(C)C(=O)[C@@H]1CC(=O)N(C)[C@@H](CC(F)F)C(=O)N[C@@H]([C@@H](C)CC)C(=O)N(C)CC(=O)N(C)[C@H]2C/C=C\CCN(C2=O)[C@@H](Cc2ccc(C(F)(F)F)cc2)C(=O)N(C)CC(=O)N[C@@H](CCc2ccc(C(F)(F)F)c(OC)c2)C(=O)N2C[C@@H](C)C[C@H]2C(=O)NC2(CC(C)(C)C2)C(=O)N(C)[C@@H](C2CCCC2)C(=O)N1C [PP1989] | A (a compound having 10 or more and less than 20 is denoted as A) | A (a compound having 10 or more and less than 20 is denoted as A) |
| CCO[C@@H]1C[C@H]2C(=O)NC3(CCC3)C(=O)N(C)[C@@H](C3CCCC3)C(=O)N(C)[C@H](C(=O)N(C)CC)CC(=O)N(C)[C@@H](C(C)C)C(=O)N[C@@H]([C@@H](C)CC)C(=O)N(C)CC(=O)N(C)[C@H]3C/C=C\CCN(C3=O)[C@@H](Cc3ccc(C(F)(F)F)cc3)C(=O)N(C)CC(=O)N[C@@H](CCc3cc(F)c(C(F)(F)F)c(F)c3)C(=O)N2C1 [PP1990] | A (a compound having 10 or more and less than 20 is denoted as A) | A (a compound having 10 or more and less than 20 is denoted as A) |
| CCCN(C)C(=O)[C@@H]1CC(=O)N(C)[C@@H](COCC)C(=O)N[C@@H]([C@@H](C)CC)C(=O)N(C)CC(=O)N(C)[C@H]2C/C=C\CCN(C2=O)[C@@H](Cc2ccc(C(F)(F)F)cc2)C(=O)N(C)CC(=O)N[C@@H](CCc2ccc(C(F)(F)F)c(OC)c2)C(=O)N2C[C@@H](C)C[C@H]2C(=O)NC2(CC(C)(C)C2)C(=O)N(C)[C@@H](C2CCCC2)C(=O)N1C [PP1991] | A (a compound having 10 or more and less than 20 is denoted as A) | A (a compound having 10 or more and less than 20 is denoted as A) |
| CCCN(C)C(=O)[C@@H]1CC(=O)N(C)[C@@H](C(C)C)C(=O)N[C@@H]([C@@H](C)CC)C(=O)N(C)CC(=O)N(C)[C@H]2C/C=C\CCN(C2=O)[C@@H](Cc2ccc(C(F)(F)F)cc2)C(=O)N(C)CC(=O)N[C@@H](CCc2cc(F)c(C(F)(F)F)c(F)c2)C(=O)N2C[C@H](OCC)C[C@H]2C(=O)NC2(CCC2)C(=O)N(C)[C@@H](C2CCCC2)C(=O)N1C [PP1992] | AA (a compound having 20 or more is denoted as AA) | B (a compound having 3 or more and less than 10 is denoted as B) |
| CCOC[C@H]1C(=O)N[C@@H]([C@@H](C)CC)C(=O)N(C)CC(=O)N(C)[C@H]2C/C=C\CCN(C2=O)[C@@H](Cc2ccc(C(F)(F)F)cc2)C(=O)N(C)CC(=O)N[C@@H](CCc2ccc(C(F)(F)F)c(OC)c2)C(=O)N2C[C@@H](C)C[C@H]2C(=O)NC2(CC(C)(C)C2)C(=O)N(C)[C@@H](C2CCCC2)C(=O)N(C)[C@H](C(=O)N(C)CC)CC(=O)N1C [PP1993] | A (a compound having 10 or more and less than 20 is denoted as A) | A (a compound having 10 or more and less than 20 is denoted as A) |
| CCCN(C)C(=O)[C@@H]1CC(=O)N(C)[C@@H](C2CC2)C(=O)N[C@@H]([C@@H](C)CC)C(=O)N(C)CC(=O)N(C)[C@H]2C/C=C\CCN(C2=O)[C@@H](Cc2ccc(C(F)(F)F)cc2)C(=O)N(C)CC(=O)N[C@@H](CCc2cc(F)c(C(F)(F)F)c(F)c2)C(=O)N2C[C@H](OCC)C[C@H]2C(=O)NC2(CCC2)C(=O)N(C)[C@@H](C2CCCC2)C(=O)N1C [PP1994] | AA (a compound having 20 or more is denoted as AA) | A (a compound having 10 or more and less than 20 is denoted as A) |
| CCCOC[C@H]1C(=O)N[C@@H]([C@@H](C)CC)C(=O)N(C)CC(=O)N(C)[C@H]2C/C=C\CCN(C2=O)[C@@H](Cc2ccc(C(F)(F)F)cc2)C(=O)N(C)CC(=O)N[C@@H](CCc2ccc(C(F)(F)F)c(OC)c2)C(=O)N2C[C@@H](C)C[C@H]2C(=O)NC2(CC(C)(C)C2)C(=O)N(C)[C@@H](C2CCCC2)C(=O)N(C)[C@H](C(=O)N(C)CC)CC(=O)N1C [PP1995] | A (a compound having 10 or more and less than 20 is denoted as A) | B (a compound having 3 or more and less than 10 is denoted as B) |
| CCO[C@@H]1C[C@H]2C(=O)NC3(CCC3)C(=O)N(C)[C@@H](C3CCCC3)C(=O)N(C)[C@H](C(=O)N(C)CC)CC(=O)N(C)[C@@H](C3CCC3)C(=O)N[C@@H]([C@@H](C)CC)C(=O)N(C)CC(=O)N(C)[C@H]3C/C=C\CCN(C3=O)[C@@H](Cc3ccc(C(F)(F)F)cc3)C(=O)N(C)CC(=O)N[C@@H](CCc3cc(F)c(C(F)(F)F)c(F)c3)C(=O)N2C1 [PP1996] | A (a compound having 10 or more and less than 20 is denoted as A) | B (a compound having 3 or more and less than 10 is denoted as B) |
| CCCOC[C@H]1C(=O)N[C@@H]([C@@H](C)CC)C(=O)N(C)CC(=O)N(C)[C@H]2C/C=C\CCN(C2=O)[C@@H](Cc2ccc(C(F)(F)F)cc2)C(=O)N(C)CC(=O)N[C@@H](CCc2ccc(C(F)(F)F)c(OC)c2)C(=O)N2C[C@@H](C)C[C@H]2C(=O)NC2(CC(C)(C)C2)C(=O)N(C)[C@@H](C2CCCC2)C(=O)N(C)[C@H](C(=O)N(C)C)CC(=O)N1C [PP1997] | A (a compound having 10 or more and less than 20 is denoted as A) | B (a compound having 3 or more and less than 10 is denoted as B) |
